pIC50: −log10 of the molar value. The source made the active and inactive calls. The rule behind the calls is not given here.
Key:
[1] = Cytotoxicity against human BJ cells after 72 hrs by MTT assay; format: cell-based
[2] = Cytotoxicity against human MRC5 cells after 72 hrs by MTT assay; format: cell-based
[3] = biological target: Adenosine kinase (Mycobacterium tuberculosis (strain CDC 1551 / Oshkosh)) (UniProt P9WID4); assay: Activity of Mycobacterium tuberculosis ADK assessed as compound conversion to 5'-phosphate form incubated at 37 degC for 20 mins by HPLC method
Chain of Adenosine kinase (Mycobacterium tuberculosis (strain CDC 1551 / Oshkosh)) (P9WID4 2-324 limits assumed): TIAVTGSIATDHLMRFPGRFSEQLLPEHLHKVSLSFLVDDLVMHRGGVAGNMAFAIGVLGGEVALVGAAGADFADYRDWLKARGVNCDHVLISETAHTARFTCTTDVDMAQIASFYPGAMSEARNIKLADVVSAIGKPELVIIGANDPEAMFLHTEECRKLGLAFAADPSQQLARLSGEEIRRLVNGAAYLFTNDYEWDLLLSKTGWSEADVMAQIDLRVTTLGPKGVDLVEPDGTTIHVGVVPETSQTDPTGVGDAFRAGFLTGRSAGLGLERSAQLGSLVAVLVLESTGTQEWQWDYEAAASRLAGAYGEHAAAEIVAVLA

Adenosine kinase [4] = biological target: T1, Adenosine kinase (Homo sapiens, UniProt P55263); assay: Activity of human ADK assessed as compound conversion to 5'-phosphate form incubated at 37 degC for 20 mins by HPLC method; design: concentration or dose not given beside the values
Target sequence in this assay (P55263 2-362 limits assumed): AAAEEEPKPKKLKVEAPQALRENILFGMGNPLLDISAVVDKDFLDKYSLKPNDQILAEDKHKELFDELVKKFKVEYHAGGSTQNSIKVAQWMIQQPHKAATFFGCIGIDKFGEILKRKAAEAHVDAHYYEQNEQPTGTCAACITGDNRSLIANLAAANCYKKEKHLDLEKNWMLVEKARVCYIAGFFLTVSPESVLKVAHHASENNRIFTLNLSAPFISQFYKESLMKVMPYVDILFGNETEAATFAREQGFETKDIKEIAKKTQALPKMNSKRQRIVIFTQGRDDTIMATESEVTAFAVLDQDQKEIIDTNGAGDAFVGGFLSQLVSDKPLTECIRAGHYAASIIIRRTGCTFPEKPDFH

Adenosine kinase [5] = biological target: T1, Adenosine kinase; assay: Inhibition of human ADK using [3H]-adenosine by scintillation counting method
Target sequence in this assay (P55263 whole entry): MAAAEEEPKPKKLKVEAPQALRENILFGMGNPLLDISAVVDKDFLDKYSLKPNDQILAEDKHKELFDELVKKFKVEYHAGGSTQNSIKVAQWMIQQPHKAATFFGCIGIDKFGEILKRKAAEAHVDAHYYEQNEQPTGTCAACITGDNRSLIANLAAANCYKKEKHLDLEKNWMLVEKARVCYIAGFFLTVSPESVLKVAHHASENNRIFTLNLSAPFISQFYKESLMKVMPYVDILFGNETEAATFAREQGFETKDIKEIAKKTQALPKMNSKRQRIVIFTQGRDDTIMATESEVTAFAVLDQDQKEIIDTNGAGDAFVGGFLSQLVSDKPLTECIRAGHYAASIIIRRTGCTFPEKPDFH

Adenosine kinase [6] = biological target: Adenosine kinase (Mycobacterium tuberculosis (strain CDC 1551 / Oshkosh), UniProt P9WID4); assay: Inhibition of Mycobacterium tuberculosis ADK using [3H]-adenosine by scintillation counting method
Chain of Adenosine kinase (Mycobacterium tuberculosis (strain CDC 1551 / Oshkosh), UniProt P9WID4) (P9WID4 whole entry): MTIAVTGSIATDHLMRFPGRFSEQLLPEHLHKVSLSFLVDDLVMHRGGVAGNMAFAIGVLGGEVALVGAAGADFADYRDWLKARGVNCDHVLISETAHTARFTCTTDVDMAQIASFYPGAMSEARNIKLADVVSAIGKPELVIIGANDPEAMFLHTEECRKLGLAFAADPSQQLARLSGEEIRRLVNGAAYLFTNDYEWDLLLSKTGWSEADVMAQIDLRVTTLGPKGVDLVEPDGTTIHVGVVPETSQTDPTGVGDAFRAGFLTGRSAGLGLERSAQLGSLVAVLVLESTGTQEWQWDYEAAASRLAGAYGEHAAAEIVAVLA

For `OC[C@H]1O[C@@H](n2cc(Cl)c3c(-c4cccs4)ncnc32)[C@H](O)[C@@H]1O`, the CC50 at 72 h [1] was 4.97 µM, the CC50 at 72 h [2] was over 50 µM and the Activity [3] was “inactive”. The Activity (Adenosine kinase [4]) was 100%, the pIC50 (Adenosine kinase [5]) was 5.92 and the pIC50 (Adenosine kinase [6]) was 7.15.

For `OC[C@H]1O[C@@H](n2ccc3c(-c4ccc[nH]4)ncnc32)[C@H](O)[C@@H]1O`, the CC50 at 72 h [1] was over 50 µM, the CC50 at 72 h [2] was over 50 µM and the Activity [3] was “inactive”. It also gave an Activity (Adenosine kinase [4]) of 40%, a pIC50 (Adenosine kinase [5]) of under 5.00 and a pIC50 (Adenosine kinase [6]) of 7.14.

In the case of `OC[C@H]1O[C@@H](n2cc(Cl)c3c(-c4ccccc4)ncnc32)[C@H](O)[C@@H]1O`, the CC50 at 72 h [1] was 44.5 µM, the CC50 at 72 h [2] was over 50 µM and the Activity [3] was “inactive”. For the same compound, the Activity (Adenosine kinase [4]) was 29%, the pIC50 (Adenosine kinase [5]) was under 5.00 and the pIC50 (Adenosine kinase [6]) was 6.66.

For `OC[C@H]1O[C@@H](n2ccc3c(-c4ccccn4)ncnc32)[C@H](O)[C@@H]1O`, the CC50 at 72 h [1] was 1.74 µM, the CC50 at 72 h [2] was over 50 µM and the Activity [3] was “inactive”. It also gave an Activity (Adenosine kinase [4]) of 39%, a pIC50 (Adenosine kinase [5]) of under 5.00 and a pIC50 (Adenosine kinase [6]) of 6.92.

With `OC[C@H]1O[C@@H](n2ccc3c(-c4cn[nH]c4)ncnc32)[C@H](O)[C@@H]1O` the CC50 at 72 h [1] was 42.1 µM, the CC50 at 72 h [2] was over 50 µM and the Activity [3] was “inactive”. For the same compound, the Activity (Adenosine kinase [4]) was 7%, the pIC50 (Adenosine kinase [5]) was under 4.70 and the pIC50 (Adenosine kinase [6]) was 6.17.

In the case of `OC[C@H]1O[C@@H](n2cc(F)c3c(-c4ccccc4)ncnc32)[C@H](O)[C@@H]1O`, the CC50 at 72 h [1] was over 50 µM, the CC50 at 72 h [2] was over 50 µM and the Activity [3] was “inactive”. For the same compound, the Activity (Adenosine kinase [4]) was 17%, the pIC50 (Adenosine kinase [5]) was under 5.00 and the pIC50 (Adenosine kinase [6]) was 6.70.

With `OC[C@H]1O[C@@H](n2ccc3c(-c4cc[nH]c4)ncnc32)[C@H](O)[C@@H]1O` the CC50 at 72 h [1] was 1.87 µM, the CC50 at 72 h [2] was 40.1 µM and the Activity [3] was “inactive”. For the same compound, the Activity (Adenosine kinase [4]) was 70%, the pIC50 (Adenosine kinase [5]) was under 5.00 and the pIC50 (Adenosine kinase [6]) was 6.52.

Source: ChEMBL document CHEMBL3132858, “6-Alkyl-, 6-aryl- or 6-hetaryl-7-deazapurine ribonucleosides as inhibitors of human or MTB adenosine kinase and potential antimycobacterial agents” (Medchemcomm, 2013)
